US20130273567A1, “Screening Method for Candidate Agonist Compounds for Adiponectin Receptor I” (priority 2010, published 2013)

What was measured:
AMPK = AMPK phosphorylation in C2C12 myocytes (immunoblotting); type: cell-based, mouse; conditions: for effect on adiponectin-induced increase in AMPK phosphorylation: C2C12 myocytes preincubated with 5 mM EGTA 20 min, 50 μM BAPTA-AM 30 min or 10 μM U73122 30 min, then adiponectin 30 μg/ml 5 min
Description: (§1) The mouse C2C12 myoblasts were grown in 90% Dulbecco's modified high glucose Eagle's medium containing 10% (v/v) fetal bovine serum. When the cells reached 80% confluent, the myoblasts were induced to differentiate into myocytes by replacing the medium with a low serum differentiation medium (98% Dulbecco's modified high glucose Eagle's medium, 2.5% (v/v) horse serum). The medium was changed daily. The C2C12 cells were transfected by using Pofectamine 2000 (Invitrogen) and following the manufacturer's instructions.

AdipoR1 = molecular target: T1, AdipoR1 (Mus musculus, UniProt Q91VH1); test: Calcium imaging in C2C12 myocytes (fura-2); type: cell-based; set-up: endogenous in cells; host or cells: mouse C2C12 myocytes (differentiated from myoblasts)
T1 sequence (Q91VH1 1-375): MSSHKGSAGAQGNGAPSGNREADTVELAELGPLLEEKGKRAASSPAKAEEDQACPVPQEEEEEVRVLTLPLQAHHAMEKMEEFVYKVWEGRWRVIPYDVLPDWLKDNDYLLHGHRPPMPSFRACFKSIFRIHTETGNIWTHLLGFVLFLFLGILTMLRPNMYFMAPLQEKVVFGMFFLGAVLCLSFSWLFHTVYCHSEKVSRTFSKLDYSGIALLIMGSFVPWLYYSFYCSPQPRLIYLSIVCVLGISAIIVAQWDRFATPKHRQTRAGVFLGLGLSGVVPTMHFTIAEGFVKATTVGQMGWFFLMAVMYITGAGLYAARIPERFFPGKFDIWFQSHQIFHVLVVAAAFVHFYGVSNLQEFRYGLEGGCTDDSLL
Description: C212 myocytes cultured on glass base dishes (IWAKI) were treated with 2.5 μM fura-2/AM for 30 min. Fluorescence was measured with an Aquacosmos Calcium Imaging system (Hamamatsu Photonics). Ligands were delivered through the superfusing Ringer's solution (140 mM NaCl, 5.6 mM KCl, 5 mM HEPES, 2.0 mM sodium pyruvate, 1.25 mM KH2PO4, 2.0 mM CaCl2, 2.0 mM MgCl2, 9.4 mM D-glucose (pH 7.4)). For the calcium chelating experiment, EGTA solution (140 mM NaCl, 5.6 mM KCl, 5 mM HEPES, 2.0 mM sodium pyruvate, 1.25 mM KH2PO4, 2.0 mM MgCl2, 5.0 mM EGTA-2Na, 9.4 mM D-glucose (pH 7.4) was used for the bath solution. Fura-2 fluorescence ratios were calibrated to calcium ion signals.

mAdipoR1 = molecular target: T2, mAdipoR1 (Mus musculus, UniProt Q91VH1); test: Xenopus oocytes injected with AdipoR1 cRNA, two-electrode voltage clamp recording; type: cell-based; conditions: Xenopus oocytes expressing AdipoR1, 5 mM EGTA
T2 construct: expressed in transfected cells; host or cells: Xenopus oocytes (stage V to VII) injected with cRNA
T2 sequence (Q91VH1 1-375): T1 sequence (Q91VH1 1-375)
Description: Stage V to VII oocytes were treated with 2 mg/ml of collagenase S-1 (Nitta gelatin) in calcium ion-free saline solution (82.5 mM NaCl, 2 mM KCl, 1 mM MgCl2, and 5 mM HEPES, pH 7.5) for 1 to 2 hr at room temperature. The resulting oocytes were then microinjected with 50 ng of cRNA for mAdipoR1. The cRNA was synthesized from linearized modified pSPUTK. The injected oocytes were incubated for 3 days at 18° C. in a bath solution (88 mM NaCl, 1 mM KCl, 0.3 mM Ca(NO3)2, 0.4 mM CaCl2, 0.8 mM MgSO4, 2.4 mM NaHCO3, 15 mM HEPES, pH 7.6) supplemented with 10 μg/ml of penicillin and streptomycin.
Whole cell currents were recorded with a two-electrode voltage clamp technique. Intracellular glass electrodes were filled with 3M KCl. Signals were amplified with an OC-725C amplifier (Warner Instruments), low-pass filtered at 50 Hz, and digitized at 1 kHz. A control bath solution contained 115 mM NaCl, 2.5 mM KCl, 1.8 mM CaCl2, and 10 mM HEPES. It was titrated to pH 7.2 with NaOH. A calcium ion free solution containing 1.8 mM BaCl2 instead of CaCl2 was used. The inward current was monitored at a holding potential of −80 mV. Calcium ion activated Cl^− current was monitored by applying 500-mscc depolarizing pulses of +100 mV and +50 mV from the holding potential of −80 mV. Adiponectin was supplied to the superfusing bath solution via a silicon tube connected to computer-driven solenoid valves. Data acquisition and analysis were carried out using Digidata 1322A and pCLAMP software.

CaMKI, HDAC5 = test: Phosphorylation of CaMKI and HDAC5 in C2C12 myocytes (immunoblotting); type: cell-based, mouse; conditions: 5 mM EGTA
Description: as §1

PGC-1α = PGC-1α (Ppargc1a mRNA) expression in C2C12 myocytes; type: cell-based, mouse; conditions: C2C12 myocytes preincubated with AraA 0.5 mM 1 hr, STO-609 1 μg/ml 6 hr or EGTA 5 mM 20 min, then adiponectin 10 μg/ml 1.5 hr
Description: Real-time PCR was carried out according to the method described in the following documents (Nature Med. 13, 332-339 2007); Nature 423, 762-769 (2003); J. Biol. Chem. 281, 8748-8755 (2006)). Total RNA was prepared from cells or tissues by using Trizol (Invitrogen) according to the manufacturer's instructions. Quantification of mRNA was conducted using a real-time PCR method (Nature 423, 762-769 (2003)) with slight modifications. The procedures used for immunoblotting are described in the following documents (Nature Med. 7, 941-946 (2001); J. Biol. Chem. 281, 26602-26614 (2006); J. Biol. Chem. 281, 8748-8755 (2006)). The livers or muscles were freeze-clamped in liquid nitrogen in situ (Nature Med. 7, 941-946 (2001); J. Biol. Chem. 281, 26602-26614 (2006); J. Biol. Chem. 281, 8748-8755 (2006)). The mouse C2C12 myoblasts were grown in 90% Dulbecco's modified high glucose Eagle's medium containing 10% (v/v) fetal bovine serum. When the cells reached 80% confluent, the myoblasts were induced to differentiate into myocytes by replacing the medium with a low serum differentiation medium (98% Dulbecco's modified high glucose Eagle's medium, 2.5% (v/v) horse serum). The medium was changed daily. The C2C12 cells were transfected by using Pofectamine 2000 (Invitrogen) and following the manufacturer's instructions.

muscle-R1KO mice [1] = test: Treatment of muscle-R1KO mice with AICAR, resveratrol or MnTBAP; type: in vivo; conditions: for citrate synthase activities in muscle / insulin resistance / mitochondrial content in muscle: AICAR 500, resveratrol 400, MnTBAP 10 mg per kg body weight per day
Description: Oral glucose tolerance test (OGTT) and insulin tolerance test (ITT) were conducted by the method described in the following documents (Nature Med. 8, 1288-1295 (2002); Nature Med. 7, 941-946 (2001)), with some modifications. The areas of the glucose and insulin curves were calculated, respectively, by multiplying the cumulative mean height of the glucose values (1 mg/ml=1 cm) and insulin values (1 ng/ml=1 cm) by time (60 min=1 cm) (Nature Med. 13, 332-339 (2007); Nature Med. 7, 941-946 (2001)). The insulin resistance index was calculated from the product of the areas of glucose and insulin×10^−2 in the glucose tolerance test. The results were expressed as the percentage of the value of control littermates.

C2C12 myocytes = test: Mitochondrial content assay in C2C12 myocytes (mtDNA copy number, MitoTracker Green); type: cell-based, mouse; conditions: C2C12 myocytes preincubated with AraA 0.5 mM 1 hr or STO-609 1 μg/ml 6 hr, then adiponectin 48 hr
Description: Mice used were from 8 to 10 week old at the time of the experiment. […] Induction of myogenic differentiation using C2C12 cells was carried out according to the method described in the following document (Nature Med. 8, 1288-1295 (2002)). By day 5, the cells had differentiated into multinucleated contracting myocytes. C2C12 myocytes were used after myogenic differentiation in all experiments.
as §1
(§2) Mitochondrial content assays were carried out as described in the following document (Cell Metab. 4, 75-87 (2006)), with slight modifications. Quantification of the mitochondrial content was conducted by using mtDNA and MitoTracker Green probe (Molecular Probes) according to the method as described in the following document (Obes. Res. 13, 574-581 (2005)). MitoTracker Green probe preferentially accumulates in mitochondria regardless of the mitochondrial membrane potential and provides an accurate assessment of mitochondrial mass. Cells were washed with PBS and after addition of 100 nM MitoTracker Green FM (Molecular Probes), incubated at 37° C. for 30 min. Cells were harvested by using trypsin/EDTA and resuspended in PBS. Fluorescence intensity was detected with excitation and emission wavelengths of 490 and 516 nm, respectively, and the values thus measured were corrected for total protein (mg/ml).

muscle-R1KO mice [2] = test: Increased calcium influx experiment (Bay-K 8644 gelatin hydrogel) in muscle-R1KO mice; type: in vivo; conditions: 0.25 μM Bay-K 8644
Description: as §2
Citrate synthase activity was determined from the homogeneates by using a spectrophotometer according to the method described in the following documents (Cell Metab. 4, 75-87 (2006); Eur. J. Biochem. 10, 198-206 (1969); Obes Res 13, 574-581 (2005)). The citrate synthase activity was measured at 37° C. in 0.1M Tris-HCl (pH 8.3) assay buffer containing 0.12 mM 5,5′-dithio-bis(2-nitrobenzoic acid) and 0.6 mM oxaloacetate. After recording of absorbance at 412 nm in the first two minutes, the reaction was started with the addition of 3 mM acetyl-CoA and a change in absorbance was measured every 10 sec for 7 min.
Hydrogels were prepared by crosslinking aqueous gelatin solutions with glutaraldehyde according to the method described in the following document (J. Control Release 64, 133-142 (2000)). For incorporating Bay-K 8644 into the resulting gelatin hydrogels, 20 μl of Bay-K 8644 (0.25 μM) was added dropwise onto 20 mg of freeze-dried hydrogel and left it overnight at 4° C. Under anesthesia, the gelatin hydrogel having Bay-K 8644 incorporated therein was implanted under the skin. Then, the skin was carefully sutured with No. 4-0 nylon monofilament.

In the case of COc1ccc2c(c1)CC[C@@H]1[C@@H]2CC[C@]2(C)[C@@H](NCCCCCCN3C(=O)C=CC3=O)CC[C@@H]12 [U73122], the “effect on adiponectin-induced increase in AMPK phosphorylation” value (AMPK) is reported as “had little effect”.
With O=C(O)CN(CCOCCOCCN(CC(=O)O)CC(=O)O)CC(=O)O [EGTA] the “effect on adiponectin-induced calcium ion response” value (AdipoR1; 5 mM EGTA (removal of extracellular free calcium ions)) was “almost completely abolished”, the “effect on ATP-induced intracellular calcium ion release” value (AdipoR1; EGTA) was “had no effect” and the “effect on adiponectin-induced inward current responses” value (mAdipoR1) was “almost completely abolishes”. The “effect on calcium-ion activated Cl- current responses to adiponectin” value (mAdipoR1) was “almost completely abolished”, the “effect on adiponectin-induced increase in AMPK phosphorylation” value (AMPK) was “partially suppressed” and the “effect on phosphorylation of AMPK induced by AICAR” value (AMPK; C2C12 myocytes, 5 mM EGTA, AICAR 1 mM 1 hr) was “had no effect”. For the same compound, the “effect on ionomycin-dependent phosphorylation of AMPK” value (AMPK; C2C12 myocytes, 5 mM EGTA, ionomycin 1 μM) was “almost completely abolished”, the “effect on increased CaMKI phosphorylation stimulated with adiponectin” value (CaMKI, HDAC5) was “almost completely abolished” and the “effect on PGC-1α expression induced by adiponectin” value (“effect on PGC-1α expression induced” below) (PGC-1α) was “effectively and almost completely abolished”.
For NC(=O)c1ncn([C@@H]2O[C@H](CO)[C@@H](O)[C@H]2O)c1N [AICAR, 5-aminoimidazole-4-carboxamide-1-β-D-libocide], the “citrate synthase activities in muscle” value (muscle-R1KO mice [1]; muscle-R1KO mice, 2 weeks) was “increased”, the insulin resistance (muscle-R1KO mice [1]; muscle-R1KO mice, 2 weeks) was “significantly ameliorated” and the “mitochondrial content in muscle” value (muscle-R1KO mice [1]; muscle-R1KO mice, 2 weeks) was “increased”. For the same compound, the “rescue of the AdipoR1 loss in muscle” value (muscle-R1KO mice [1]; muscle-R1KO mice, AICAR 500 mg per kg body weight per day, 2 weeks) was “significantly but partially rescued” and the “phosphorylation of AMPK in muscle” value (muscle-R1KO mice [1]; muscle-R1KO mice, AICAR 500 mg per kg body weight per day, 2 hours) was “significantly increased”.
In the case of Oc1ccc(C=Cc2cc(O)cc(O)c2)cc1 [resveratrol], the “citrate synthase activities in muscle” value (muscle-R1KO mice [1]; muscle-R1KO mice, 2 weeks) is reported as “increased”, the insulin resistance (muscle-R1KO mice [1]; muscle-R1KO mice, 2 weeks) is reported as “significantly ameliorated” and the “mitochondrial content in muscle” value (muscle-R1KO mice [1]; muscle-R1KO mice, 2 weeks) is reported as “increased”.
In the case of Nc1ncnc2c1ncn2[C@@H]1O[C@H](CO)[C@@H](O)[C@@H]1O [AraA], the “effect on adiponectin-induced increase in mitochondrial biogenesis” value (C2C12 myocytes) is reported as “almost completely abolished” and the “effect on PGC-1α expression induced” value (PGC-1α) is reported as “only tended to decrease”.
COC(=O)C1=C(C)NC(C)=C([N+](=O)[O-])C1c1ccccc1C(F)(F)F (stereo not shown) [Bay-K 8644] was tested, and the “CaMKKβ activity (phosphorylation of CaMKI) in skeletal muscle” value (muscle-R1KO mice [2]) was “increase”, the “citrate synthase activities in muscle” value (muscle-R1KO mice [2]) was “significantly enhanced” and the “insulin-stimulated phosphorylation of Akt in muscle” value (muscle-R1KO mice [2]) was “significantly enhanced”. For the same compound, the “mitochondrial content in muscle” value (muscle-R1KO mice [2]) was “significantly enhanced”.
With O=C(O)c1ccc(/C2=C3\C=CC(=N3)/C(c3ccc(C(=O)O)cc3)=c3/cc/c4[n]3[Mn]([Cl])[n]3c2ccc3/C(c2ccc(C(=O)O)cc2)=C2/C=CC(=N2)\C=4c2ccc(C(=O)O)cc2)cc1 [MnTBAP] the “ROS such as H2O2 in skeletal muscle” value (muscle-R1KO mice [1]; MnTBAP 10 mg per kg body weight per day, 2 weeks) was “significantly decreased”, the “citrate synthase activities in muscle” value (muscle-R1KO mice [1]; muscle-R1KO mice, 2 weeks) was “failed to significantly increase” and the insulin resistance (muscle-R1KO mice [1]; muscle-R1KO mice, 2 weeks) was “tended to ameliorate”. The “mitochondrial content in muscle” value (muscle-R1KO mice [1]; muscle-R1KO mice, 2 weeks) was “failed to significantly increase”.
In the case of O=C(O)c1ccc2c3c1cccc3c(=O)n1c3ccccc3nc21 [STO-609], the “effect on adiponectin-induced increase in mitochondrial biogenesis” value (C2C12 myocytes) is reported as “almost completely abolished” and the “effect on PGC-1α expression induced” value (PGC-1α) is reported as “effectively and almost completely abolished”.
With CC(=O)OCOC(=O)CN(CC(=O)OCOC(C)=O)c1ccccc1OCCOc1ccccc1N(CC(=O)OCOC(C)=O)CC(=O)OCOC(C)=O [BAPTA-AM, Bis-(o-aminophenoxy)ethane-N,N,N9,N9-tetra-acetic acid, tetraacetoxymethyl ester] the “effect on adiponectin-induced increase in AMPK phosphorylation” value (AMPK) was “partially suppressed”.
